Data on five compounds can be found in patent publication EP4603105A1, “PHARMACEUTICAL COMPOSITION CONTAINING CYCLIC COMPOUND HAVING SELECTIVE KRAS INHIBITORY EFFECT AGAINST HRAS AND NRAS” (CHUGAI SEIYAKU KABUSHIKI KAISHA, priority 2022, dated 2024).

pIC50: −log10 of the molar value. Where a SMILES comes first, the peptide text is derived from it. Bridges are numbered along the chain shown (N, C = ends). [ ]: non-standard residue; d: D form. The star is where a group is joined. hPhe(3-Cl-4-CF3) = N[C@@H](CCc1ccc(C(F)(F)F)c(Cl)c1)C(=O)O; NPrPhe(4-CF3) = CCCN[C@@H](Cc1ccc(C(F)(F)F)cc1)C(=O)O; hPhe(3,4-Cl2) = N[C@@H](CCc1ccc(Cl)c(Cl)c1)C(=O)O; NMeGly(cPent) = CN[C@H](C(=O)O)C1CCCC1; Hyp = O=C(O)[C@@H]1C[C@@H](O)CN1; NMeD = CN[C@@H](CC(=O)O)C(=O)O; NMeL = CN[C@@H](CC(C)C)C(=O)O; Ac6c = NC1(C(=O)O)CCCCC1; Morpholide = C1CN(*)CCO1; NMeA = CN[C@@H](C)C(=O)O; Ac5c = NC1(C(=O)O)CCCC1; Aze = O=C(O)[C@@H]1CCN1; Ac3c = NC1(C(=O)O)CC1; Aib = CC(C)(N)C(=O)O; Sar = CNCC(=O)O

For test [1], the system named is human lung cancer strain NCI-H441. Format: cell-based. The procedure, abridged: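 Signal came from […] measured per well once the reagent was added. Beforehand, cells were cultured at 37°C and 5% carbon dioxide on a compound series serially diluted in dimethyl sulfoxide.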
Test [2] addresses HRAS wild-type protein (Homo sapiens, UniProt P01112). Description: Binding to HRAS by surface plasmon resonance (SPR), KD and KD ratio to KRAS. To be noted: ratio of KD for HRAS wild-type protein to KD for KRAS. The essentials: (§1)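 Each cycle, GDP-bound biotin-Avi RAS was captured (~100–300 RU), compound concentrations were injected low to high for 75 s each at 100 µL/min, then the chip was regenerated. Buffer: HBS pH 7.4, 10 mM MgCl2, 10 µM GDP, 1 mM DTT, 4% DMSO; 30°C. KD from a 1:1 binding model.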

For test [3], the target named is GDP-bound NRAS wild-type protein (Homo sapiens, UniProt P01111). Description: Binding to NRAS by surface plasmon resonance (SPR), KD and KD ratio to KRAS. To be noted: ratio of KD for GDP-bound NRAS wild-type protein to KD for KRAS. The procedure, abridged: as §1
GDP-bound NRAS wild-type protein, sequence (P01111 whole entry): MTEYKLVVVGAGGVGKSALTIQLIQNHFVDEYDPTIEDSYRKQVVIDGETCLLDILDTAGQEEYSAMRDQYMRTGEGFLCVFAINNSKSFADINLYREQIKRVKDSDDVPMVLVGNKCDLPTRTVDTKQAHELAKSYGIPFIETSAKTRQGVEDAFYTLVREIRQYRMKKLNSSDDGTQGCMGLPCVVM

HRAS wild-type protein, sequence (P01112 whole entry): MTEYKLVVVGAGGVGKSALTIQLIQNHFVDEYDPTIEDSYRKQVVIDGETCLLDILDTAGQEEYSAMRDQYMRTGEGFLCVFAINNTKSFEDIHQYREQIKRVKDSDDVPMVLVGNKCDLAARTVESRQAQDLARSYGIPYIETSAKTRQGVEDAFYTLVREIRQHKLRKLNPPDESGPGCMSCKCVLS

What is called pIC50 is the negative decadic logarithm of the IC50, by convention in mol/L. Low readings indicate a large IC50, high ones a small IC50. Consider `CCCN1C(=O)[C@@H]2CCN2C(=O)[C@H](C)N(C)C(=O)[C@H]([C@@H](C)CC)NC(=O)[C@H](CC(C)C)N(C)C(=O)C[C@@H](C(=O)N2CCOCC2)N(C)C(=O)[C@H](C2CCCC2)N(C)C(=O)C2(CCCC2)NC(=O)[C@@H]2CCCN2C(=O)[C@H](CCc2ccc(Cl)c(Cl)c2)NC(=O)CN(C)C(=O)[C@@H]1Cc1ccc(C(F)(F)F)cc1` [PP0227] ([NMeL]I[NMeA][Aze][NPrPhe(4-CF3)][Sar][hPhe(3,4-Cl2)]P[Ac5c][NMeGly(cPent)][NMeD]-Morpholide; lactam N-11), for which, in test [1], the pIC50 was 8.39. For the same compound, the “HRAS /KRAS” value in test [2] was “B (a compound having 3 or more and less than 10 is denoted as B)”. Also, the “NRAS /KRAS” value in test [3] was “C (A compound having a KD ratio of 0.1 or more and less than 3 is denoted as C)”.

In turn, `CCCN1C(=O)[C@@H]2CCN2C(=O)[C@H](C)N(C)C(=O)[C@H]([C@@H](C)CC)NC(=O)[C@H](CC(C)C)N(C)C(=O)C[C@@H](C(=O)N2CCOCC2)N(C)C(=O)[C@H](C2CCCC2)N(C)C(=O)C2(CCCC2)NC(=O)[C@@H]2C[C@@H](OCC)CN2C(=O)[C@H](CCc2ccc(C(F)(F)F)c(Cl)c2)NC(=O)CN(C)C(=O)[C@@H]1Cc1ccc(C(F)(F)F)cc1` [PP0228] ([NMeL]I[NMeA][Aze][NPrPhe(4-CF3)][Sar][hPhe(3-Cl-4-CF3)][Hyp](Et)[Ac5c][NMeGly(cPent)][NMeD]-Morpholide; lactam N-11) had a pIC50 in test [1] of 8.74. In test [2], the “HRAS /KRAS” value is “B (a compound having 3 or more and less than 10 is denoted as B)”. The “NRAS /KRAS” value in test [3] is “C (A compound having a KD ratio of 0.1 or more and less than 3 is denoted as C)”.

Regarding `CCCN1C(=O)CN(C)C(=O)CN(C)C(=O)[C@H]([C@@H](C)CC)NC(=O)[C@H](CC(C)C)N(C)C(=O)C[C@@H](C(=O)N2CCOCC2)N(C)C(=O)[C@H](C2CCCC2)N(C)C(=O)C2(CC2)NC(=O)[C@@H]2CCCN2C(=O)[C@H](CCc2ccc(C(F)(F)F)c(Cl)c2)NC(=O)CN(C)C(=O)[C@@H]1Cc1ccc(C(F)(F)F)cc1` [PP0229] ([NMeL]I[Sar][Sar][NPrPhe(4-CF3)][Sar][hPhe(3-Cl-4-CF3)]P[Ac3c][NMeGly(cPent)][NMeD]-Morpholide; lactam N-11), the pIC50 in test [1] is 7.61. Further, the “HRAS /KRAS” value in test [2] was “B (a compound having 3 or more and less than 10 is denoted as B)”. Also, in test [3], the “NRAS /KRAS” value is “B (a compound having 3 or more and less than 10 is denoted as B)”.

In turn, `CCCN1C(=O)CN(C)C(=O)CN(C)C(=O)[C@H]([C@@H](C)CC)NC(=O)[C@H](CC(C)C)N(C)C(=O)C[C@@H](C(=O)N2CCOCC2)N(C)C(=O)[C@H](C2CCCC2)N(C)C(=O)C(C)(C)NC(=O)[C@@H]2CCCN2C(=O)[C@H](CCc2ccc(C(F)(F)F)c(Cl)c2)NC(=O)CN(C)C(=O)[C@@H]1Cc1ccc(C(F)(F)F)cc1` [PP0230] ([NMeL]I[Sar][Sar][NPrPhe(4-CF3)][Sar][hPhe(3-Cl-4-CF3)]P[Aib][NMeGly(cPent)][NMeD]-Morpholide; lactam N-11) had a pIC50 in test [1] of 7.81. Besides, in test [2], the “HRAS /KRAS” value is “C (A compound having a KD ratio of 0.1 or more and less than 3 is denoted as C)”. For the same compound, the “NRAS /KRAS” value in test [3] is “B (a compound having 3 or more and less than 10 is denoted as B)”.

As for `CCCN1C(=O)CN(C)C(=O)CN(C)C(=O)[C@H]([C@@H](C)CC)NC(=O)[C@H](CC(C)C)N(C)C(=O)C[C@@H](C(=O)N2CCOCC2)N(C)C(=O)[C@H](C2CCCC2)N(C)C(=O)C2(CCCCC2)NC(=O)[C@@H]2CCCN2C(=O)[C@H](CCc2ccc(C(F)(F)F)c(Cl)c2)NC(=O)CN(C)C(=O)[C@@H]1Cc1ccc(C(F)(F)F)cc1` [PP0231] ([NMeL]I[Sar][Sar][NPrPhe(4-CF3)][Sar][hPhe(3-Cl-4-CF3)]P[Ac6c][NMeGly(cPent)][NMeD]-Morpholide; lactam N-11), the pIC50 in test [1] is 7.88. The “HRAS /KRAS” value in test [2] is “C (A compound having a KD ratio of 0.1 or more and less than 3 is denoted as C)”. For the same compound, the “NRAS /KRAS” value in test [3] is “B (a compound having 3 or more and less than 10 is denoted as B)”.
